Experimental findings from patent US20060089371A1, “Phenyl or heteroaryl amino alkane derivatives as ip receptor antagonist” (Bayer HealthCare AG, priority 2002, published 2006) are described below.

One data set concerns the target T1, IP receptor (Homo sapiens, UniProt P43119).
T1 construct: one million cells in 160 μl aliquot of cell suspension were put in a well of 96 well plate; host or cells: HEL 92.1.7 human erythroleukemia cells (whole cells)
The data set can be described thus: IP receptor binding/cAMP in HEL cells ([3H]-iloprost binding, Assay 1; iloprost-induced cAMP production, Assay 2). The conditions noted are these: compounds of about 40 to 90% purity, read-out: In vitro activity grade (IC50 class). The essentials:
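For binding (Assay 1), 1×10^6 HEL 92.1.7 cells in 50 mM Tris-HCl, 5 mM MgCl2, pH 7.5 were incubated with [3H]-iloprost (0.02 μCi) for 30 min at RT and filter-counted; a 100 μM iloprost solution defined non-specific binding. Compounds were of 40-90% purity.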
Background: Cyclic AMP is a second messenger, typically raised through Gs and lowered through Gi signalling.

T1 sequence (P43119 whole entry): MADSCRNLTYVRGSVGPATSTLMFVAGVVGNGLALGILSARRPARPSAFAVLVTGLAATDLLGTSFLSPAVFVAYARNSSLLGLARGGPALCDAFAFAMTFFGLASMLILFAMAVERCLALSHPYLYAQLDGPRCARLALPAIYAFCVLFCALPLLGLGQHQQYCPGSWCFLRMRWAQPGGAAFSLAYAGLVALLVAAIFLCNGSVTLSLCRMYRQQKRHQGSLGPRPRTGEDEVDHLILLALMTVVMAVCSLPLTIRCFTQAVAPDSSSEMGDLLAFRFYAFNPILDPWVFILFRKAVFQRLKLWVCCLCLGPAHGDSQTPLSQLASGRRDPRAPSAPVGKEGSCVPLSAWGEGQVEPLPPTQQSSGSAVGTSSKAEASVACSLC

As usually defined, the melting point is the temperature, or range, at which the solid turns liquid. One may read the IC50 as the concentration that inhibits the measured activity by half. `O=C(O)C(Cc1ccccc1)Nc1cc(-c2ccc(OCc3cccc(O)c3)cc2)ncn1` (centres unmarked) [Example 2-14]: the melting point was 190 to 193 °C (dec.). Further, the half-inhibitory concentration (IC50) on IP receptor is less than 100 nM.

For the compound `CC(O)C(Nc1cc(-c2ccc(OCc3ccccc3)cc2)ncn1)C(=O)O` (centres unmarked) [Example 1-27], the melting point fell in the range of 211 to 214 °C. The IC50 at IP receptor fell in the range of 100 to 1000 nM.

Compound `CCC(C)C(Nc1cc(-c2ccc(OCc3ccccc3)cc2)ncn1)C(=O)O` (centres unmarked) [Example 1-11] gave a melting point of 56 °C. Also, the half-inhibitory concentration (IC50) on IP receptor lay within 100 to 1000 nM.

`CC(Cc1ccccc1)(Nc1cc(-c2ccc(OCc3ccccc3)cc2)ncn1)C(=O)O` (centres unmarked) [Example 1-19] had a melting point of 187 °C. Further, the IC50 on IP receptor is less than 100 nM.

With `O=C(O)C(Cc1ccccc1)Nc1cc(-c2ccc(OCC3CC3)nc2)ncn1` (centres unmarked) [Example 25-3], the melting point fell in the range of 113 to 114 °C. The IC50 on IP receptor is less than 100 nM.

For the compound `O=C(O)C(Cc1ccccn1)Nc1ncnc(-c2ccc(OCc3ccccc3)cc2)c1F` (centres unmarked) [Example 1-45], the melting point fell in the range of 177 to 178 °C. Moreover, the IC50 on IP receptor is less than 100 nM.

`O=C(O)C(Cc1c[nH]cn1)Nc1cc(-c2ccc(OCc3ccccc3)cc2)ncn1` (centres unmarked) [Example 1-39] yielded a melting point of 183 to 188 °C. Further, the concentration for half-maximal inhibition (IC50) on IP receptor is 100 to 1000 nM.

`COc1cc(COc2ccc(-c3cccc(NC(Cc4ccccc4)C(=O)O)c3)cc2)cc(OC)c1` (centres unmarked) [Example 24-3] displayed a melting point of 166 to 168 °C. The IC50 at IP receptor is less than 100 nM.

The compound `c1ccc(COc2ccc(-c3cc(NC(Cc4ccccc4)c4nnn[nH]4)ncn3)cc2)cc1` (centres unmarked) [Example 27-1, 6-[4-(Benzyloxy)phenyl]-N-[2-phenyl-1-(1H-tetrazol-5-yl)ethyl)pyrimidin-4-amine] showed a melting point of 150 °C. At IP receptor, the IC50 is less than 100 nM.

In turn, `CS(=O)(=O)CCC(Nc1cc(-c2ccc(OCc3ccccc3)cc2)ncn1)C(=O)O` (centres unmarked) [Example 1-24] showed a melting point of 138 °C. In addition, on IP receptor, the IC50 lay within 100 to 1000 nM.

`CN(c1cc(-c2ccc(OCc3ccccc3)cc2)ncn1)C(Cc1ccccc1)C(=O)O` (centres unmarked) [Example 1-58] showed a melting point of 112 to 115 °C. Further, the IC50 on IP receptor is less than 100 nM.

For `COc1ccc(-c2cc(NC(Cc3ccccc3)C(=O)O)ncn2)cc1` (centres unmarked) [Example 2-13], the melting point is 203 to 206 °C (dec.). The half-maximal inhibitory concentration (IC50) on IP receptor was 100 to 1000 nM.

Regarding `O=C(O)[C@H](Cc1ccccc1)Nc1cc(-c2ccc(OCC3CC3)cc2)ncn1` [Example 1-49], the melting point lay in the range of 180 to 185 °C. On IP receptor, the IC50 was greater than 1000 nM.

In turn, `O=C(O)C(Cc1ccc(O)cc1)Nc1cc(-c2ccc(OCc3ccccc3)cc2)ncn1` (centres unmarked) [Example 1-26] displayed a melting point of 233 to 236 °C. Besides, the IC50 on IP receptor was less than 100 nM.

For the compound `O=C(O)C(Cc1ccc([N+](=O)[O-])cc1)Nc1cc(-c2ccc(OCc3ccccc3)cc2)ncn1` (centres unmarked) [Example 1-25], the melting point came out at 211 °C. In addition, the IC50 on IP receptor is less than 100 nM.

Take `CC(C)C(Nc1cc(-c2ccc(OCc3ccccc3)cc2)ncn1)C(=O)O` (centres unmarked) [Example 1-16]: the melting point was 235 to 237 °C. Further, on IP receptor, the IC50 is 100 to 1000 nM.

Turning to `O=C(O)C(Cc1ccccc1)Nc1cc(-c2ccc(-c3ccc4c(c3)OCO4)cc2)ncn1` (centres unmarked) [Example 11-2], the melting point was 139 to 142 °C (dec.). Further, on IP receptor, the half-maximal inhibitory concentration (IC50) is less than 100 nM.

Turning to `O=C(O)C(Cc1ccccc1)Nc1cc(-c2ccc(-c3cccc([N+](=O)[O-])c3)cc2)ncn1` (centres unmarked) [Example 11-9], the melting point was 125 to 127 °C (dec.). For the same compound, the IC50 at IP receptor is less than 100 nM.

Compound `C#CCC(Nc1cc(-c2ccc(OCc3ccccc3)cc2)ncn1)C(=O)O` (centres unmarked) [Example 1-23] showed a melting point of 155 °C. For the same compound, the concentration for half-maximal inhibition (IC50) at IP receptor was less than 100 nM.
